Reference: ChEMBL document CHEMBL3580603, “Natural therapeutic agents for neurodegenerative diseases from a traditional herbal medicine Pongamia pinnata (L.) Pierre” (Bioorg Med Chem Lett, 2014)

Assays:
BV-2 = test: Anti-neuroinflammatory activity against mouse BV2 cells assessed as inhibition of LPS-induced nitric oxide production after 24 hrs by Griess assay; format: functional, cell-based; details: BV-2, 24 h
[1] = Cytotoxicity against mouse BV2 cells assessed as reduction of cell viability at IC50 after 24 hrs by MTT assay; format: cell-based; details: bv-2, 24 h

Row | SMILES | IC50 (BV-2) [µM] | Activity [1]
1 | COc1c(-c2ccccc2)oc2c(ccc3occc32)c1=O [KARANJIN] | > 100 | Non-toxic
2 | O=c1cc(-c2ccccc2)oc2c1ccc1occc12 [LANCEOLATIN B] | 20.6 | Non-toxic
3 | COc1cc(OC)c(Cl)c(-c2cc(=O)c3ccc4occc4c3o2)c1Cl | > 100 | Non-toxic
4 | COc1ccc(OC)c(-c2cc(=O)c3ccc4occc4c3o2)c1 | 87.7 | Non-toxic
5 | COc1ccc2c(=O)c(OC)c(-c3ccc(OC)c(OC)c3)oc2c1 [FISETIN TETRAMETHYL ETHER] | 28.5 | Non-toxic
6 | COc1cc2occc2c2oc(-c3ccccc3)cc(=O)c12 | 5.98 | Non-toxic
7 | C=C(C)[C@@H]1CC[C@]2(C(=O)O)CC[C@]3(C)[C@H](CC[C@@H]4[C@@]5(C)CCC(=O)C(C)(C)[C@@H]5CC[C@]43C)[C@@H]12 [BETUNOLIC ACID] | > 100 | Non-toxic
8 | CN1CC[C@@H](O)C[C@H]1C(=O)O | > 100 | Non-toxic
9 | CC1(C)C=Cc2cc(C(=O)/C=C/c3ccccc3)c(O)cc2O1 [ISOLONCHOCARPIN] | > 100 | Non-toxic
10 | COc1c(-c2ccc3c(c2)OCO3)oc2c(ccc3occc32)c1=O [PONGAPIN] | > 100 | Non-toxic
11 | COc1cc(OC)cc(-c2cc(=O)c3ccc4occc4c3o2)c1 | > 100 | Non-toxic
12 | CC1(C)C=Cc2c(ccc(C(=O)/C=C/c3ccccc3)c2O)O1 [LONCHOCARPIN] | 3.54 | Non-toxic
13 | CC1(C)CC[C@]2(C(=O)O)CC[C@]3(C)[C@H](CC[C@@H]4[C@@]5(C)CC[C@H](O)C(C)(C)[C@@H]5CC[C@]43C)[C@H]2[C@H]1O | 22.7 | Non-toxic

Continued, in another order:

Row | IC50 (BV-2) [µM] | SMILES | Activity [1]
14 | > 100 | COc1ccc2c(=O)c(OC)c(-c3cc(OC)c4c(c3)OCO4)oc2c1 | Non-toxic
15 | > 100 | COc1c2ccoc2cc2oc(-c3ccc4c(c3)OCO4)cc(=O)c12 | Non-toxic
16 | 78.8 | CC1(C)C=Cc2c(ccc3c2O[C@H](c2ccc4c(c2)OCO4)CC3=O)O1 | Non-toxic
17 | > 100 | COc1ccc(-c2coc3c(OC)c(O)ccc3c2=O)cc1 | Non-toxic
18 | 50.9 | COc1ccc(-c2coc3c(O)c(OC)ccc3c2=O)cc1 [RETUSIN 7-METHYL ETHER] | Non-toxic
19 | > 100 | COc1ccc(-c2coc3c(O)c(O)ccc3c2=O)cc1O | Non-toxic
20 | > 100 | COc1c(-c2ccc3c(c2)OCO3)oc2c3c(ccc2c1=O)OC(C)(C)C=C3 [PONGACHROMENE] | Non-toxic
21 | > 100 | COc1cccc(-c2cc(=O)c3ccc4occc4c3o2)c1 | Non-toxic
22 | > 100 | COc1ccc(-c2coc3cc(OCC=C(C)C)ccc3c2=O)cc1 | Non-toxic
23 | 45.7 | O=c1cc(-c2ccc3c(c2)OCO3)oc2c1ccc1occc12 [PONGAGLABRONE] | Non-toxic
24 | > 100 | COc1c2ccoc2cc2oc(-c3ccccc3)cc(=O)c12 [PINNATIN] | Non-toxic
25 | > 100 | COc1cc(O)cc(-c2oc3c(ccc4occc43)c(=O)c2OC)c1 | Non-toxic
26 | > 100 | COc1ccc(-c2coc3cc(O)ccc3c2=O)cc1 [FORMONONETIN] | Non-toxic
27 | 14.1 | COc1ccc2c(=O)c(OC)c(-c3ccc4c(c3)OCO4)oc2c1 [DEMETHOXYKANUGIN] | Non-toxic
28 | 6.56 | CC1(C)C=Cc2c(ccc(C(=O)/C=C/c3ccc4c(c3)OCO4)c2O)O1 | Non-toxic
29 | > 100 | O=c1c(-c2ccc3c(c2)OCO3)coc2cc(O)ccc12 [PSEUDOBAPTOGENIN] | Non-toxic
